Assay results: patent US20250295636A1, “METHOD FOR PREPARING 4-[5-[BIS(2-CHLOROETHYL)AMINO]-1-METHYL-1H-BENZO[D]IMIDAZOL-2-YL]BUTYRIC ACID ALKYL ESTERS AND FORMYLATED DERIVATIVES” (HERAEUS PRECIOUS METALS GMBH & CO. KG, priority 2022, published 2025)

Legend:
Assay type in all cases: cell-based
A375 = experiment: MTS cell proliferation assay, A375 (skin); details: Homo sapiens, A-375, 72 hours at 37° C., 490 nm
Procedure: (§1) Selected cell lines were incubated for 72 hours at 37° C. with different concentrations of 4-[5-[bis(2-chloroethyl)amino]-4-formyl-1-methyl-1H-benzo[d]imidazol-2-yl]butyric acid (concentrations ranging from 1.5 μmol to 5 mmol per liter). The cells were then incubated with MTS solution (Promega) for 1 hour, and the effects of 4-[5-[bis(2-chloroethyl)amino]-4-formyl-1-methyl-1H-benzo[d]imidazol-2-yl]butyric acid on cell proliferation were determined colorimetrically at 490 nm. Cell growth was expressed as a percentage of the corresponding control (0.5 wt. % dimethyl sulfoxide in water).

Caki-1 = experiment: MTS cell proliferation assay, Caki-1 (kidneys); details: Homo sapiens, 72 hours at 37° C., 490 nm
Procedure: as §1

Calu-6 = experiment: MTS cell proliferation assay, Calu-6 (lung); details: Homo sapiens, 72 hours at 37° C., 490 nm
Procedure: as §1

U87MG = experiment: MTS cell proliferation assay, U87MG (brain); details: Homo sapiens, U-87 MG, 72 hours at 37° C., 490 nm
Procedure: as §1

BxPC-3 = experiment: MTS cell proliferation assay, BxPC-3 (pancreas); details: Homo sapiens, 72 hours at 37° C., 490 nm
Procedure: as §1

[1] = system: skin cancer, kidney cancer, lung cancer, brain tumors and pancreatic cancer; experiment: cancer-cell-killing or cancer-cell-growth-inhibiting effect (summary of example 3); details: summary statement; compound and its pharmaceutically acceptable salts; concentration at which 50% of the cancer cells are killed
Procedure: IC50 stands for “inhibition concentration,” at which 50% of the cancer cells are killed.
as §1

Cn1c(CCCC(=O)O)nc2c(C=O)c(N(CCCl)CCCl)ccc21 [4-[5-[bis(2-chloroethyl)amino]-4-formyl-1-methyl-1H-benzo[d]imidazol-2-yl]butyric acid]
IC50 (A375): 1.3 mM
IC50 (Caki-1): 1.6 mM
IC50 (Calu-6): 1.3 mM
IC50 (U87MG): 2.9 mM
IC50 (BxPC-3): 740 µM
low IC50 concentration range [1]: one hundred
